Reference: US20260076973A1 (priority 2023, published 2026)
Structures can show the parent of a compound that is named as a salt. Where two headings read alike, the source gives them in different places.

Tested on: SARS-CoV-2 (WA1)
Assay: microbe, parasite or virus in culture
Type: cell-based
[1] = Severe acute respiratory syndrome coronavirus 2, Vero C1008, VIRADEM compounds, SARS-CoV-2(WA1) CPE assay, Round 2, concentration range 1000-0.05 nM, Vero E6, read-out: IC50
[2] = VIRADEM compounds, SARS-CoV-2(WA1) CPE assay, Round 2, concentration range 1000-0.05 nM, Vero E6, read-out: IC50

Structure (SMILES) | IC50 [1] [µM] | further results
CCOc1ccc(Nc2nc(N3CCOCC3)nc(N3CCOCC3)n2)cc1 [VIRADEM-9794, (4,6-Dimorpholin-4-yl-[1,3,5]triazin-2-yl)-(4-ethoxyphenyl)-amine hydrochloride] | > 1 | 
CCCCc1ccc(Nc2nc(N3CCOCC3)nc(N3CCOCC3)n2)cc1 [VIRADEM-10257, (4-n-Butylphenyl)-(4,6-dimorpholin-4-yl-[1,3,5]triazin-2-yl)-amine hydrochloride] | > 1 | 
Clc1ccc(Nc2nc(N3CCOCC3)nc(N3CCOCC3)n2)cc1Cl [VIRADEM-10258, (3,4-Dichlorophenyl)-(4,6-dimorpholin-4-yl-[1,3,5]triazin-2-yl)-amine hydrochloride] | 0.61 | 
c1ccc(Nc2nc(N3CCOCC3)nc(N3CCOCC3)n2)cc1 [VIRADEM-10846, (4,6-Dimorpholin-4-yl-[1,3,5]triazin-2-yl)-phenylamine hydrochloride] | > 1 | 
Cc1cccc(Nc2nc(N3CCOCC3)nc(N3CCOCC3)n2)c1 [VIRADEM-10848, (4,6-Dimorpholin-4-yl-[1,3,5]triazin-2-yl)-m-tolyl-amine hydrochloride] | > 1 | 
Fc1ccc(Nc2nc(N3CCOCC3)nc(N3CCOCC3)n2)cc1 [VIRADEM-10849, (4,6-Dimorpholin-4-yl-[1,3,5]triazin-2-yl)-(4-fluorophenyl)-amine hydrochloride] | > 1 | 
S=C(NNc1nc(N2CCOCC2)nc(N2CCOCC2)n1)Nc1ccccc1 [VIRADEM-10867, 2-(4,6-dimorpholine-4-yl-1,3,5-triazine-2-yl)-N-phenylhydrazine-carbothioamide] | > 1 | 
COc1cccc(Nc2nc(N3CCOCC3)nc(N3CCOCC3)n2)c1 [VIRADEM-10879, (4,6-Dimorpholin-4-yl-[1,3,5]triazin-2-yl)-(3-methoxyphenyl)-amine hydrochloride] | > 1 | 
COc1ccccc1Nc1nc(N2CCOCC2)nc(N2CCOCC2)n1 [VIRADEM-10881, (4,6-Dimorpholin-4-yl-[1,3,5]triazin-2-yl)-(2-methoxyphenyl)-amine hydrochloride] | > 1 | 
Cc1ccc(Nc2nc(N3CCOCC3)nc(N3CCOCC3)n2)cc1 [VIRADEM-10882, (4,6-Dimorpholin-4-yl-[1,3,5]triazin-2-yl)-p-tolyl-amine hydrochloride] | > 1 | 
CCc1ccc(Nc2nc(N3CCOCC3)nc(N3CCOCC3)n2)cc1 [VIRADEM-10883, (4,6-Dimorpholin-4-yl-[1,3,5]triazin-2-yl)-(4-ethylphenyl)-amine hydrochloride] | 0.99 | 
Cc1ccc(Nc2nc(N3CCOCC3)nc(N3CCOCC3)n2)cc1C [VIRADEM-10884, (3,4-dimethylphenyl)-(4,6-dimorpholin-4-yl-[1,3,5]triazin-2-yl)-amine] |  | IC50 (Severe acute respiratory syndrome coronavirus 2, Vero C1008): 0.08 µM
COc1ccc(Nc2nc(N3CCOCC3)nc(N3CCOCC3)n2)cc1 [VIRADEM-10885, (4,6-Dimorpholin-4-yl-[1,3,5]triazin-2-yl)-(4-methoxyphenyl)-amine hydrochloride] | > 1 | 
Cc1ccc(Nc2nc(N3CCOCC3)nc(N3CCOCC3)n2)cc1Cl [VIRADEM-10886, (3-Chloro-4-methylphenyl)-(4,6-dimorpholin-4-yl-[1,3,5]triazin-2-yl)-amine hydrochloride] | 0.31 | 
Cc1cc(C)cc(Nc2nc(N3CCOCC3)nc(N3CCOCC3)n2)c1 [VIRADEM-10887, (3,5-Dimethylphenyl)-(4,6-dimorpholin-4-yl-[1,3,5]triazin-2-yl)-amine] | > 1 | 
COC(=O)c1ccc(Nc2nc(N3CCOCC3)nc(N3CCOCC3)n2)cc1 [VIRADEM-10890, 4-(4,6-Dimorpholin-4-yl-[1,3,5]triazin-2-ylamino-benzoic acid methyl ester hydrochloride] |  | IC50 [2]: > 1 µM
FC(F)(F)Oc1ccc(Nc2nc(N3CCOCC3)nc(N3CCOCC3)n2)cc1 [VIRADEM-10891, (4,6-Dimorpholin-4-yl-[1,3,5]triazin-2-yl)-(4-trifluoromethoxyphenyl)-amine hydrochloride] | > 1 | 
c1ccc(Oc2ccc(Nc3nc(N4CCOCC4)nc(N4CCOCC4)n3)cc2)cc1 [VIRADEM-10892, (4,6-Dimorpholin-4-yl-[1,3,5]triazin-2-yl)-(4-phenoxyphenyl)-amine hydrochloride] | > 1 | 
Fc1ccc(Nc2nc(N3CCOCC3)nc(N3CCOCC3)n2)cc1Cl [VIRADEM-10893, (3-Chloro-4-fluorophenyl)-(4,6-dimorpholin-4-yl-[1,3,5]triazin-2-yl)-amine hydrochloride] | > 1 | 
Clc1ccc(Nc2nc(N3CCOCC3)nc(N3CCOCC3)n2)cc1 [VIRADEM-10894, (4-Chlorophenyl)-(4,6-dimorpholin-4-yl-[1,3,5]triazin-2-yl)-amine hydrochloride] | 0.84 | 
Clc1cccc(Nc2nc(N3CCOCC3)nc(N3CCOCC3)n2)c1 [VIRADEM-10902, (3-Chlorophenyl)-(4,6-dimorpholin-4-yl-[1,3,5]triazin-2-yl)-amine hydrochloride] | > 1 | 

Structure (SMILES) | IC50 [1] [µM] | further results
C1CCN(c2nc(N3CCOCC3)nc(N3CCOCC3)n2)CC1 [VIRADEM-10903, 2,4-Dimorpholin-4-yl-6-piperidin-1-yl-[1,3,5]triazin hydrochloride] | > 1 | 
COc1ccc(Nc2nc(N3CCCCC3)nc(N3CCCCC3)n2)cc1 [VIRADEM-11041, (4,6-Dipiperidine-1-yl-[1,3,5]triazin-2-yl)-(4-methoxyphenyl)-amine hydrochloride] | > 1 | 
Cc1ccc(Nc2nc(C3CCNC3)nc(C3CCNC3)n2)cc1 (stereo not drawn) [VIRADEM-11139, (4,6-Dipyrrolidin-4-yl-[1,3,5]triazin-2-yl)-p-tolyl-amine hydrochloride] | > 1 | 
Clc1cccc(Nc2nc(N3CCCCC3)nc(N3CCCCC3)n2)c1 [VIRADEM-11499, (3-Chlorophenyl)-(4,6-dipiperidine-1-yl-[1,3,5]triazin-2-yl)-amine hydrochloride] | > 1 | 
c1ccc(Oc2ccc(Nc3nc(C4CCNC4)nc(C4CCNC4)n3)cc2)cc1 (stereo not drawn) [VIRADEM-11503, (4,6-Dipyrrolidin-4-yl-[1,3,5]triazin-2-yl)-(4-phenoxyphenyl)-amine hydrochloride] | > 1 | 
CC(=O)Nc1ccc(Nc2nc(N3CCCC3)nc(N3CCCC3)n2)cc1 [VIRADEM-11510, N-[4-(4,6-Dipyrrolidin-1-yl-[1,3,5]triazin-2-ylamino)-phenyl]-acetamide hydrochloride] | > 1 | 
CCCCc1ccc(Nc2nc(N3CCCC3)nc(N3CCCC3)n2)cc1 [VIRADEM-11511, (4-Butylphenyl)-(4,6-dipyrrolidin-1-yl-[1,3,5]triazin-2-yl)-amine hydrochloride] | > 1 | 
CCOc1ccc(Nc2nc(N3CCCC3)nc(N3CCCC3)n2)cc1 [VIRADEM-11515, (4,6-Dipyrrolidin-1-yl-[1,3,5]triazin-2-yl)-(4-ethoxyphenyl)-amine hydrochloride] | > 1 | 
c1cc2c(cc1Nc1nc(N3CCCC3)nc(N3CCCC3)n1)OCO2 [VIRADEM-11522, Benzo[1,3]dioxol-5-yl-(4,6-dipyrrolidin-1-yl-[1,3,5]triazin-2-yl)-amine hydrochloride] | > 1 | 
c1ccc(Nc2nc(N3CCCC3)nc(N3CCCC3)n2)cc1 [VIRADEM-11528, (4,6-Dipyrrolidin-1-yl-[1,3,5]triazin-2-yl)-phenylamine hydrochloride] | > 1 | 
c1cc2c(cc1Nc1nc(Nc3ccc4c(c3)OCO4)nc(N3CCOCC3)n1)OCO2 [VIRADEM-11566, N,N^1-bis-benzo[1,3]dioxol-5-yl-6-morpholin-4-yl-[1,3,5]triazine-2,4-diamine] | 0.32 | 
c1cc2c(cc1Nc1nc(N3CCCC3)nc(N3CCCC3)n1)OCCO2 [VIRADEM-11596, -(2,3-dihydrobenzo[1,4]dioxin-6-yl)-(4,6-dipyrrolidin-1-yl-[1,3,5]triazin-2-yl)-amine hydrochloride] |  | IC50 [2]: > 1 µM
COc1ccccc1Nc1nc(N2CCCC2)nc(N2CCCC2)n1 [VIRADEM-11597, (4,6-Dipyrrolidin-1-yl-[1,3,5]triazin-2-yl)-(2-methoxyphenyl)-amine hydrochloride] | > 1 | 
CCOC(=O)c1ccc(Nc2nc(Nc3ccc(F)cc3)nc(N3CCOCC3)n2)cc1 [VIRADEM-11660, 4-[4-(4-Fluorophenylamino)-6-morpholin-4-yl-[1,3,5]triazin-2-ylamino]benzoic acid ethyl ester] | 0.12 | 
NC1=NC(Nc2ccc3c(c2)OCO3)N(c2ccc(F)cc2)C(N2CCOCC2)=N1 (stereo not drawn) [VIRADEM-11674, N-Benzo[1,3]dioxol-5-yl-N^1-(4-fluorophenyl)-6-morpholin-4-yl-[1,3,5]triazine-2,4-diamine hydrochloride] | 0.2 | 
Cc1cccc(N2C(N3CCOCC3)=NC(N)=NC2Nc2ccc(Cl)cc2)c1 (stereo not drawn) [VIRADEM-11680, N-(4-Chlorophenyl)-6-morpholin-4-yl-N^1-m-tolyl-[1,3,5]triazine-2,4-diamine hydrochloride] | > 1 | 
CCc1ccc(Nc2nc(Nc3ccc(Cl)c(Cl)c3)nc(N3CCOCC3)n2)cc1 [VIRADEM-11758, N-(3,4-Dichlorophenyl)-N^1-(4-ethyphenyl)-6-morpholin-4-yl-[1,3,5]triazine-2,4-diamine] |  | IC50 [2]: > 1 µM
Cc1cc(C)cc(Nc2nc(Nc3ccc(Cl)c(Cl)c3)nc(N3CCOCC3)n2)c1 [VIRADEM-11759, N-(3,4-Dichlorophenyl)-N^1-(3,5-dimethyphenyl)-6-morpholin-4-yl-[1,3,5]triazine-2,4-diamine] |  | IC50 [2]: 0.35 µM
CCNc1nc(NCC)nc(Nc2ccc(C)c(C)c2)n1 [VIRADEM-11768, N-(3,4-Dimethylhenyl)-N^1,N^2-diethyl-[1,3,5]triazine-2,4,6-triamine hydrochloride] |  | IC50 [2]: > 1 µM
CC(=O)c1cccc(Nc2nc(Nc3cccc(C)c3)nc(N3CCOCC3)n2)c1 [VIRADEM-11778, 1-[3-(4-Morpholin-4-yl-6-m-tolylamino-[1,3,5]triazin-2-ylamino)-phenyl]-ethanone hydrochloride] | 0.32 | 
Cc1cccc(N2C(N3CCOCC3)=NC(N)=NC2Nc2cccc(Cl)c2)c1 (stereo not drawn) [VIRADEM-11781, N-(3-Chlorophenyl)-6-morpholin-4-yl-N^1-m-tolyl-[1,3,5]triazine-2,4-diamine hydrochloride] | 0.11 | 
